Laboratory results from US11970490B2, “Stable heavy isotopes in amide functional groups and uses thereof” (RISEN (SUZHOU) PHARMA TECH CO., LTD., priority 2020, dated 2024).

Assays:
[1] = Pharmacokinetic studies in ICR mice, oral gavage, plasma; type: in vivo; conditions: 2.5 mg/kg; for AUC(0-inf) / AUC(0-t) / Cmax / Tmax / Vd/F: mouse; for AUC(0-inf) / AUC(0-t) / Cmax / Tmax / Vd/F / CLz/F: oral gavage, 1:1 molar mix, plasma; for Vd/F: read-out: Vz/F
Method: ICR mice, 48, in 6 groups (n=8), were grouped randomly. Compound 1 (Alpelisib-^18O1) and Alpelisib were mixed and adjusted to 1:1 molar ratio in dosing solution (1.25 mg/mL); and the dosing solution was administered to the animals, via oral gavage, at a dose level of 2.5 mg/kg. Blood samples were collected (a group of 8 animals for each time point) at time points, after dosing, at 0.5, 1, 2, 4, 8, and 12 h. The blood samples were converted to plasma samples using standard techniques, and the latter samples were analyzed to determine the concentrations of Compound 1 and Alpelisib. In FIG. 2, lines labelled with -o- and -Δ-represent the plasma concentrations of Alpelisib-^18O1 and Alpelisib, respectively, following oral administration of the same dose of Alpelisib-^18O1 and Alpelisib to the animals.

[2] = Pharmacokinetic studies in beagle dogs, single oral dose, co-administered; type: in vivo; conditions: for Cmax / Tmax / half-life / AUC(0-t) / Vd/F: both sexes, dog, plasma; for Cmax / Tmax / half-life / AUC(0-t) / Vd/F / CLz/F: single oral dose 2.5 mg/kg each; for Cmax / Tmax / half-life / Vd/F / CLz/F: co-administered; for AUC(0-t): co-administered (total 5 mg/kg); for Vd/F: read-out: Vz/F
Method: Male and female beagle dogs (n=4; 2 males and 2 females) were used in the study. A single oral dose of Alpelisib (2.5 mg/kg) and Compound 1 (^18O1-Alpelisib) (2.5 mg/kg) were co-administered (at a total dose of 5 mg/kg) in DMSO and 0.5% carboxymethyl cellulose sodium (CMC-Na) aqueous solution (5:95, v/v). Blood samples were collected for analysis of Alpelisib and ^18O1-Alpelisib at 0.25, 0.5, 1, 1.5, 2, 3, 4, 6, 8, 10, 12 and 24 h. In FIG. 4, lines labelled with -o- and -Δ- represent the plasma concentrations of Alpelisib-^18O1 and Alpelisib, respectively, following oral administration of the same dose of Alpelisib-^18O1 and Alpelisib to the animals.

[3] = Pharmacokinetic studies in Sprague Dawley (SD) rats, oral gavage, plasma; type: in vivo; conditions: for AUC(0-t) / AUC(0-inf) / Cmax / Tmax / Vd/F: Sprague-Dawley, rat; for AUC(0-t) / AUC(0-inf) / Cmax / Tmax / Vd/F / plasma concentration at 24-h timepoint / CLz/F: oral gavage; for AUC(0-t) / AUC(0-inf) / Cmax / Tmax / Vd/F / CLz/F: plasma; for Vd/F: read-out: Vz/F; for plasma concentration at 24-h timepoint: 0.322 mg/kg
Method: (a) SD rats, six in a group (n=6), were grouped randomly. Compound 1 (Alpelisib-^18O1) and Alpelisib were mixed and adjusted to 1:1 molar ratio in dosing solution (1.25 mg/mL); and the dosing solution was administered to the animals, via oral gavage, at a dose level of 2.5 mg/kg. Blood samples were collected at pre-set time points following drug administration, at 0.167, 0.5, 1, 2, 3, 4, 6, 8, and 24 hours (h). The blood samples were converted to plasma samples using standard techniques, and the latter samples were analyzed to determine the concentrations of Compound 1 and Alpelisib. In FIG. 1a, lines labelled with -o- and -Δ-represent the plasma concentrations of Alpelisib-^18O1 and Alpelisib, respectively, following oral administration of the same molar dose of Alpelisib-^18O1 and Alpelisib to the animals.
(b) Similarly, Compound 1 (Alpelisib-^18O1) and Alpelisib were administered to the animals (SD rats, n=4), via oral gavage, at a low dose (dose level of 0.322 mg/kg). Blood samples were collected at pre-set time points following drug administration, at 0.167, 0.5, 1, 2, 4, 6, 8, 10 and 24 hours (h). The blood samples were converted to plasma samples using standard techniques, and the latter samples were analyzed to determine the concentrations of Compound 1 and Alpelisib. […] In FIG. 1b, solid line and dashed line represent the plasma concentrations of Alpelisib-^18O1 and Alpelisib, respectively.

[4] = M4 and M4-18O1 production in monkey liver S9; type: in vitro ADME; conditions: monkey liver S9, 37° C., β-NADPH, 0-240 min, equal molar co-incubation
Method: (§1) Stock solution (50 μL) containing equal molar concentration of Alpelisib and Alpelisib-^18O1 was diluted with pre-warmed (37° C., water bath) 0.1 M Tris-Acetate buffer; and the concentration of each compound in this working solution was 4.5 μM. In each incubation well were added the above working solution (50 μL) and a liver S9 solution (50 μL), mixed well. The sample was pre-incubated for 5 min, following by addition, to each well, of β-NADPH dosing solution (100 μL). The sample plate was incubated at 37° C., and analyzed at time points of 0, 15, 30, 60, and 240 min., in triplicates. Sample analysis: at a pre-set time-point, a stop solution (800 μL, acetonitrile) was added to each well; the sample was well-mixed (Vortex), and centrifuged at 12000 rpm for 5 minutes; the supernatant was transferred to analytical sample vial, and then analyzed with LC-MS/MS, for M4 and M4-^18O1. […] Liver S9 used in the experiment: (a) monkey liver S9, (b) pooled human S9, (c) mini pig liver S9, and (d) male Wistar rat Liver S9.

[5] = M4 and M4-18O1 production in male Wistar rat liver S9; type: in vitro ADME; conditions: male Wistar rat liver S9, 37° C., β-NADPH, 0-240 min, equal molar co-incubation
Method: as §1

[6] = M4 and M4-18O1 production in pooled human S9; type: in vitro ADME; conditions: pooled human S9, 37° C., β-NADPH, 0-240 min, equal molar co-incubation
Method: as §1

[7] = M4 and M4-18O1 production in mini pig liver S9; type: in vitro ADME; conditions: mini pig liver S9, 37° C., β-NADPH, 0-240 min, equal molar co-incubation
Method: as §1

[8] = James, A. et al., 2015; cited from earlier work
[9] = dose 2.5 mg/kg, 1:1 molar mix of Compound 1 and Alpelisib

SMILES: Cc1nc(NC(=O)N2CCC[C@H]2C(N)=O)sc1-c1ccnc(C(C)(C)C(F)(F)F)c1 [Alpelisib, N-(4-methyl-5-(2-(2,2,2-trifluoro-1,1-dimethylethyl)-4-pyridinyl)-2-thiazolyl)aminocarbonyl-L-prolinamide, reference compound]
- AUC(0-inf) [1]: 30600 ng·h/mL
- AUC(0-t) [1]: 26200 ng·h/mL
- Cmax [1]: 4210 ng/mL
- Tmax [1]: 2 h
- Vd/F [1]: 2.37 L/kg
- CLz/F [1]: 6.82 mL/min/kg
- Cmax [2]: 931 ng/mL
- Tmax [2]: 1.2 h
- half-life [2]: 5.4 h
- AUC(0-t) [2]: 6120 ng·h/mL
- Vd/F [2]: 3 L/kg
- CLz/F [2]: 6.83 mL/min/kg
- AUC(0-t) [3, 9]: 26400 ng·h/mL
- AUC(0-inf) ([3]; dose 2.5 mg/kg, 1:1 molar mix): 26500 ng·h/mL
- Cmax ([3]; dose 2.5 mg/kg, 1:1 molar mix): 2300 ng/mL
- Tmax ([3]; dose 2.5 mg/kg, 1:1 molar mix): 3 h
- Vd/F ([3]; dose 2.5 mg/kg, 1:1 molar mix): 1.8 L/kg
- AUC(0-inf) ([3]; low dose 0.322 mg/kg): 80.3 ng·h/mL
- AUC(0-t) ([3]; low dose 0.322 mg/kg): 75.2 ng·h/mL
- Cmax ([3]; low dose 0.322 mg/kg): 28.1 ng/mL
- Tmax ([3]; low dose 0.322 mg/kg): 0.625 h
- Vd/F ([3]; low dose 0.322 mg/kg): 13.1 L/kg
- plasma concentration at 24-h timepoint [3]: below the limit of quantification
- CLz/F ([3]; dose 2.5 mg/kg, 1:1 molar mix): 7.87 mL/min/kg
- CLz/F ([3]; low dose 0.322 mg/kg): 68.3 mL/min/kg

SMILES: Cc1nc(NC(=O)N2CCC[C@H]2C(N)=[18O])sc1-c1ccnc(C(C)(C)C(F)(F)F)c1 [Compound 1, N-(4-methyl-5-(2-(2,2,2-trifluoro-1,1-dimethylethyl)-4-pyridinyl)-2-thiazolyl)aminocarbonyl-L-prolin-^18O-amide]
- AUC(0-inf) [1]: 32600 ng·h/mL
- AUC(0-t) [1]: 27800 ng·h/mL
- Cmax [1]: 4520 ng/mL
- Tmax [1]: 2 h
- Vd/F [1]: 2.24 L/kg
- CLz/F [1]: 6.4 mL/min/kg
- plasma concentration compared with Alpelisib ([1]; oral): higher
- metabolism compared to Alpelisib (M4-18O1 versus M4 production) [4]: reduced
- Cmax [2]: 1470 ng/mL
- Tmax [2]: 1.1 h
- half-life [2]: 4.5 h
- AUC(0-t) [2]: 6680 ng·h/mL
- Vd/F [2]: 2.4 L/kg
- plasma concentration compared with Alpelisib ([2]; oral, 2.5 mg/kg each): higher
- CLz/F [2]: 6.33 mL/min/kg
- metabolism compared to Alpelisib (M4-18O1 versus M4 production) [5]: reduced
- AUC(0-t) [3, 9]: 28700 ng·h/mL
- AUC(0-inf) ([3]; dose 2.5 mg/kg, 1:1 molar mix): 28800 ng·h/mL
- Cmax ([3]; dose 2.5 mg/kg, 1:1 molar mix): 2390 ng/mL
- Tmax ([3]; dose 2.5 mg/kg, 1:1 molar mix): 3 h
- Vd/F ([3]; dose 2.5 mg/kg, 1:1 molar mix): 1.66 L/kg
- AUC(0-inf) ([3]; low dose 0.322 mg/kg): 132 ng·h/mL
- AUC(0-t) ([3]; low dose 0.322 mg/kg): 118 ng·h/mL
- Cmax ([3]; low dose 0.322 mg/kg): 32.6 ng/mL
- Tmax ([3]; low dose 0.322 mg/kg): 0.875 h
- Vd/F ([3]; low dose 0.322 mg/kg): 11.4 L/kg
- plasma concentration at 24-h timepoint [3]: below the limit of quantification
- CLz/F ([3]; dose 2.5 mg/kg, 1:1 molar mix): 7.23 mL/min/kg
- CLz/F ([3]; low dose 0.322 mg/kg): 41.7 mL/min/kg
- plasma concentration compared with Alpelisib ([3]; oral, both doses tested (2.5 and 0.322 mg/kg), greatest effect at low dose): higher
- metabolism compared to Alpelisib (M4-18O1 versus M4 production) [6]: reduced
- metabolism compared to Alpelisib (M4-18O1 versus M4 production) [7]: reduced

SMILES: Cc1nc(NC(=O)N2CCC[C@H]2C(=O)O)sc1-c1ccnc(C(C)(C)C(F)(F)F)c1 [Compound M4]
- biological activity of the acid metabolite [8]: biologically inactive
